These results are taken from patent US11964972B2, “Salt form” (CRT Pioneer Fund LP, priority 2018, dated 2024).

Series [1] in a line: Recrystallisation studies (XRPD form classification). It is filed as physicochemical. Here is the method:
The ditosylate salt of the compound of formula I (about 100 mg) was suspended in a designated volume of water miscible solvent at a given temperature, followed by the addition of one volume aliquots of pre-heated water until dissolution was achieved. The agitated mixtures were then cooled to 20° C. and agitated for about 16 hours. […] Solvent, solvent ratios and form classification of the isolated solids are detailed in Table 2.

How the values of series [2] were obtained: The ability of samples studied to absorb moisture (or not) over a set of well-determined humidity ranges was assessed. Sorption isotherms were obtained using a Hiden Isochema moisture sorption analyser (model IGAsorp), controlled by IGAsorp Systems Software V6.50.48. The sample was maintained at a constant temperature (25° C.) by the instrument controls. The humidity was controlled by mixing streams of dry and wet nitrogen, with a total flow of 250 ml·min^−1. The instrument was verified for relative humidity content by measuring three calibrated Rotronic salt solutions (10-50-88%). The weight change of the sample was monitored as a function of humidity by a microbalance (accuracy +/−0.005 mg). A defined amount of sample (typically 10-15 mg powder) was placed in a tared mesh stainless steel basket under ambient conditions. A full experimental cycle typically consisted of three scans (desorption, sorption, and desorption) at a constant temperature (25° C.) and 10% RH intervals over a 0-90% range (60 minutes for each humidity level). Solids are then held post cycle at 0% RH for 2-3 hours and tested by XRPD and the remainder held at 90% RH for 2-3 hours and re-tested by XRPD.

For series [3] the following is noted: for Solubility: Form A, 37° C., minimum of 23 hours; for pH: pH of the aqueous mixture. Here is the method: Crystalline ditosylate salt of the compound of formula I (about 40 mg, Form A) was suspended by gentle shaking in various aqueous buffers, biologically relevant media and formulation vehicles, 2×0.5 ml, at ambient temperature, ca 20° C. The mixtures were then heated to 37° C. with agitation for a minimum of 23 hours. The pH of the aqueous mixtures were also measured.
Table 1 presents the pH measurements and the solubility in various dissolution media.

For series [4] the following is noted: for XRPD classification: 20/40° C. cycling. As for the experimental part: The equilibration of a solid in various solvents with temperature modulation is an accepted approach to investigate the form stability of a solid and the generation of alternate modifications, polymorphs/solvates of the material.
The ditosylate of the compound of formula I, 35 mg, was subjected to equilibration in various solvents with agitation at 20° C. for 90 hours, 40° C. for 3 hours, cooled to 20° C. over 3 hours, then heated to 40° C. for 16 hours and cooled to 20° C. The solvents were initially charged to the salts in aliquots, 0.25 ml, until dissolution was observed or a volume of 2 ml achieved. The solids were isolated by filtration and dried in vacuo at 50° C. for about 16 hours and then analysed by XRPD.

For series [5] the following is noted: 40° C. and 75% RH, 3 weeks. As for the experimental part:
The ditosylate salt of the compound of formula I was stored at 40° C. and 75% RH in loose screw top vials for 3 weeks.

In series [6] the target is T1, MPS1 kinase (Homo sapiens, UniProt P33981).
T1 sequence (P33981 1-857): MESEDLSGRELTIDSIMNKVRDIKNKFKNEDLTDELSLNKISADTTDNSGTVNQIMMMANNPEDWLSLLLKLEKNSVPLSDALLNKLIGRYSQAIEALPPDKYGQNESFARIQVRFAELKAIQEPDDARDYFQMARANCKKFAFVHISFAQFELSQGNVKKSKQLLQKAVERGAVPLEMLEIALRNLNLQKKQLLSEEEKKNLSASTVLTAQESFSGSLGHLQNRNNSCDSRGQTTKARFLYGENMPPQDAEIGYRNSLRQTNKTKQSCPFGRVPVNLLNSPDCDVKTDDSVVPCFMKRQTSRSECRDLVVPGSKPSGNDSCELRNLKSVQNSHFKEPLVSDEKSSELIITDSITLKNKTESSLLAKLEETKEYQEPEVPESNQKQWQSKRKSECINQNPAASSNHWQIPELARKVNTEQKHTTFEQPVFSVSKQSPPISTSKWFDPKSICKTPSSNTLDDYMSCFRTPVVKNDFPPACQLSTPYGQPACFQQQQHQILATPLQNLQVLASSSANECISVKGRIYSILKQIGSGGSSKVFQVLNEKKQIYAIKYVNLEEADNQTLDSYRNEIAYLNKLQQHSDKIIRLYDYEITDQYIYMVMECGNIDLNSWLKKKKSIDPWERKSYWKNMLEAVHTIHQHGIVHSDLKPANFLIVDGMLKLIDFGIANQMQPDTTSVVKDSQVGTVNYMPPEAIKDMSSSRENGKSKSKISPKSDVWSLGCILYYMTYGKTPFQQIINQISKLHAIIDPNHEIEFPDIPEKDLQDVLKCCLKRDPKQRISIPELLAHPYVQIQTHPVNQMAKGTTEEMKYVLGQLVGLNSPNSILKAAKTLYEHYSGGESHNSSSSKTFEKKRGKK
To be noted: background statement; WO 2014/037750; cited from earlier work.

[7] abbreviates: from 0 to 90% RH, 25° C., Form A.

Molecules are shown by their SMILES. Like-named read-outs stand apart in the source and are kept apart here.

In the case of `CCOc1cc(-c2nncn2C)ccc1Nc1ncc2cc(C)nc(NCC(C)(C)C)c2n1.Cc1ccc(S(=O)(=O)O)cc1.Cc1ccc(S(=O)(=O)O)cc1` [ditosylate Form C, ditosylate salt of N2-(2-ethoxy-4-(4-methyl-4H-1,2,4-triazol-3-yl)phenyl)-6-methyl-N8-neopentylpyrido[3,4-d]pyrimidine-2,8-diamine Form C], the “Form stability on thermal manipulation (XRPD, DSC)” value in series [1] (solid isolated from exclusively ethanol, FIG. 5, FIG. 6) is “metastable form that could be thermally converted to ditosylate Form A”.
Regarding `CCOc1cc(-c2nncn2C)ccc1Nc1ncc2cc(C)nc(NCC(C)(C)C)c2n1.Cc1ccc(S(=O)(=O)O)cc1.Cc1ccc(S(=O)(=O)O)cc1` [ditosylate salt of N2-(2-ethoxy-4-(4-methyl-4H-1,2,4-triazol-3-yl)phenyl)-6-methyl-N8-neopentylpyrido[3,4-d]pyrimidine-2,8-diamine], the “XRPD Observations” value is “Form A” in series [1] (2-butanone 8 volumes, water 1 volume, 80 ° C.); “Form A” in series [1] (2-propanol 8 volumes, water 1 volume, 80 ° C.); “Form A” in series [1] (Acetone 10 volumes, water 2 volumes, 60 ° C.); “Form A” in series [1] (Acetonitrile 2 volumes, water 1 volume, 60 ° C.); “Form A” in series [1] (Ethanol 2 volumes, water 1 volume, 60 ° C.); “Form C” in series [1] (Ethanol 15 volumes, no water, 80 ° C.). Moreover, the “Form change post DVS and at the extremes of humidity (XRPD)” value in series [2] (0% RH and 90% RH, FIG. 8) is on record as “no evidence of form change”. For the same molecule, the DVS profile entry in series [2] (0-90% RH, 25° C., Form A, FIG. 7) was “reversible water uptake over the humidity range and no hysteresis”. Moreover, the Water uptake/loss in series [2] (setting [7]) came out at 2.13%. Besides, the “Water uptake/loss as equivalents of water” value in series [2] (setting [7]) is “about 1.0 equivalents of water”. Besides, the Solubility – broadly, the concentration that dissolves in the medium under given conditions – in series [3] (FaSSIF) is 14210 µg/mL; in series [3] (FeSSIF), 1690 µg/mL; in series [3] (NaCl,0.9%/DMSO/Tween 20), 12690 µg/mL; in series [3] (PEG300) it was 2900 µg/mL; in series [3] (Phosphate buffer), 2240 µg/mL; in series [3] (SFaGF) it was 5720 µg/mL. The Solubility was 9580 µg/mL in series [3] (Sodium chloride 0.9% w/v) and 5850 µg/mL in series [3] (Water, deionised). In addition, the pH in series [3] (Acetate buffer) came out at 4.33; in series [3] (FaSSIF), 2.41; in series [3] (FeSSIF), 3.05; in series [3] (NaCl,0.9%/DMSO/Tween 20), 1.97; in series [3] (Phosphate buffer) it was 2.56; in series [3] (SFaGF) it was 1.40. The pH in series [3] (Sodium chloride 0.9% w/v) came out at 2.01; in series [3] (Water, deionised), 2.13. The XRPD classification entry in series [4] (equilibration in 1,4-Dioxane), in series [4] (equilibration in 1-Butanol), in series [4] (equilibration in 2-Chlorobutane), in series [4] (equilibration in 2-Methyltetrahydrofuran), in series [4] (equilibration in 2-Propanol) and in series [4] (equilibration in 3-Methyl-1-butanol) was “Form A” in each case. Besides, the XRPD classification result in series [4] (equilibration in Acetonitrile), in series [4] (equilibration in Chlorobenzene), in series [4] (equilibration in Ethyl acetate), in series [4] (equilibration in Heptane), in series [4] (equilibration in Isopropyl acetate) and in series [4] (equilibration in Methanol) was “Form A” in each case. The XRPD classification entry in series [4] (equilibration in Methyl isobutyl ketone), in series [4] (equilibration in Methylcyclohexane), in series [4] (equilibration in Nitromethane), in series [4] (equilibration in TBME), in series [4] (equilibration in Toluene) and in series [4] (equilibration in Trifluorotoluene) was “Form A” in each case. Besides, the XRPD classification entry in series [4] (equilibration in Water) and in series [4] (equilibration in n-Butyl acetate) was “Form A” each time. In addition, the “Propensity to exhibit version or polymorphic variance” value in series [4] (summary of the polymorphism studies) is listed as “remarkable lack of propensity to exhibit version or polymorphic variance”. In addition, in series [5], the “Chemical degradation after storage” value is recorded as “no evidence of chemical degradation”. The Hydration following storage result in series [5] is reported as “no evidence”. Further, the “Form modification after storage (XRPD)” value in series [5] (FIG. 4) was “No evidence of form modification”. Further, the “Change in appearance after storage” value in series [5] (loose screw top vials) was “No change in appearance”.
With `CCOc1cc(-c2nncn2C)ccc1Nc1ncc2cc(C)nc(NCC(C)(C)C)c2n1` [compound I, N2-(2-ethoxy-4-(4-methyl-4H-1,2,4-triazol-3-yl)phenyl)-6-methyl-N8-neopentylpyrido[3,4-d]pyrimidine-2,8-diamine], in series [6], the “MPS1 kinase inhibitory activity” value was “potent MPS1 kinase inhibitory activity”.
